Results on three compounds are retold here after patent US9828393B2, “Silylalkyloxyaryl compounds and methods for treating cancer” (THE REGENTS OF THE UNIVERSITY OF COLORADO, a body corporate, priority 2013, dated 2017).

Common to all, as to type: cell-based, human
In assay [1] the test system is MOLT-4. The assay can be described thus: NCI-60 cell line screen (SRB), MOLT-4. As for the experimental part: (§1) Drug sensitivity data are provided as GI50s (concentrations required to inhibit growth by 50%). The first row of the text file identifies cell lines, separated by tabs. Subsequent rows contain compound number, compound name, and GI50 for each cell line, each separated by a tab. […] For a typical screening experiment, cells are inoculated into 96 well microtiter plates in 100 μL at plating densities ranging from 5,000 to 40,000 cells/well depending on the doubling time of individual cell lines. After cell inoculation, the microtiter plates are incubated at 37° C., 5% CO2, 95% air and 100% relative humidity for 24 h prior to addition of experimental drugs. After 24 h, two plates of each cell line are fixed in situ with TCA, to represent a measurement of the cell population for each cell line at the time of drug addition (Tz). Experimental drugs are solubilized in dimethyl sulfoxide at 400-fold the desired final maximum test concentration and stored frozen prior to use. At the time of drug addition, an aliquot of frozen concentrate is thawed and diluted to twice the desired final maximum test concentration with complete medium containing 50 μg/ml gentamicin. Additional four, 10-fold or one-half log serial dilutions are made to provide a total of five drug concentrations plus control. Aliquots of 100 μl of these different drug dilutions are added to the appropriate microtiter wells already containing 100 μl of medium, resulting in the required final drug concentrations. Following drug addition, the plates are incubated for an additional 48 h at 37° C., 5% CO2, 95% air, and 100% relative humidity. For adherent cells, the assay is terminated by the addition of cold TCA. Cells are fixed in situ by the gentle addition of 50 μl of cold 50% (w/v) TCA (final concentration, 10% TCA) and incubated for 60 minutes at 4° C. The supernatant is discarded, and the plates are washed five times with tap water and air dried. Sulforhodamine B (SRB) solution (100 μl) at 0.4% (w/v) in 1% acetic acid is added to each well, and plates are incubated for 10 minutes at room temperature. After staining, unbound dye is removed by washing five times with 1% acetic acid and the plates are air dried. Bound stain is subsequently solubilized with 10 mM trizma base, and the absorbance is read on an automated plate reader at a wavelength of 515 nm. For suspension cells, the methodology is the same except that the assay is terminated by fixing settled cells at the bottom of the wells by gently adding 50 μl of 80% TCA (final concentration, 16% TCA). Using the seven absorbance measurements [time zero, (Tz), control growth, (C), and test growth in the presence of drug at the five concentration levels (Ti)], the percentage growth is calculated at each of the drug concentrations levels. […]

Assay [2] deals with OVCAR-8. The assay can be described thus: NCI-60 cell line screen (SRB), OVCAR-8. As for the experimental part:
as §1

In assay [3] the test system is HS 578T. The assay can be described thus: NCI-60 cell line screen (SRB), HS 578T. As for the experimental part:
as §1

Assay [4] deals with K-562. The assay can be described thus: NCI-60 cell line screen (SRB), K-562. As for the experimental part: as §1
Assay [5] deals with HOP-62. The assay can be described thus: NCI-60 cell line screen (SRB), HOP-62. As for the experimental part: as §1
Assay [6] relates to HCT-116. In words: NCI-60 cell line screen (SRB), HCT-116. As for the experimental part:
as §1

The subject of assay [7] is 786-0. In words: NCI-60 cell line screen (SRB), 786-0. As for the experimental part:
as §1

The test system of assay [8] is MDA-MB-435. In words: NCI-60 cell line screen (SRB), MDA-MB-435. As for the experimental part: as §1
Assay [9] has as its system CNS Cancer cell lines. The assay can be described thus: NCI-60 cell line screen, CNS Cancer panel average. The settings on record: read-out: GI50 Average. As for the experimental part: as §1
In assay [10] the test system is LOX IMVI. The assay can be described thus: NCI-60 cell line screen (SRB), LOX IMVI. As for the experimental part: as §1
Assay [11] concerns A-498. The assay can be described thus: NCI-60 cell line screen (SRB), A-498. As for the experimental part:
as §1

Assay [12] has as its system CAKI-1. In words: NCI-60 cell line screen (SRB), CAKI-1. As for the experimental part:
as §1

Assay [13] deals with KM12. The assay can be described thus: NCI-60 cell line screen (SRB), KM12. As for the experimental part:
as §1

The test system of assay [14] is UACC-257. In words: NCI-60 cell line screen (SRB), UACC-257. As for the experimental part: as §1
Assay [15] concerns A549/ATCC. The assay can be described thus: NCI-60 cell line screen (SRB), A549/ATCC. As for the experimental part:
as §1

Assay [16] deals with SK-OV-3. The assay can be described thus: NCI-60 cell line screen (SRB), SK-OV-3. As for the experimental part: as §1
Assay [17] has as its system Melanoma cell lines. In words: NCI-60 cell line screen, Melanoma panel average. The settings on record: read-out: GI50 Average. As for the experimental part:
as §1

Assay [18] deals with COLO 205. In words: NCI-60 cell line screen (SRB), COLO 205. As for the experimental part:
as §1

Assay [19] concerns NCI-H23. The assay can be described thus: NCI-60 cell line screen (SRB), NCI-H23. As for the experimental part: as §1

SMILES strings stand for the structures. Where two headings read alike, the source gives them in different places.

What is called GI50 is the concentration that inhibits growth by half. Turning to `CC1(C)CC(NC(=O)[C@H](Cc2ccc(OCc3c(Cl)cccc3Cl)cc2)NC(=O)c2ccc(OCCC[Si](C)(C)C)cc2)CC(C)(C)N1` [GH1501, N^α-{4-[3-(trimethylsilyl)propoxy]-benzoyl}-N-(2,2,6,6-tetramethylpiperidin-4-yl)-[O-(2,6-dichlorobenzyl)-L-tyrosinamide]], the GI50 in assay [1] (Homo sapiens, MOLT-4, 48 h) turned out to be 353 nM; in assay [2] (Homo sapiens, OVCAR-8, 48 h), 268 nM; in assay [3] (Homo sapiens, Hs-578T, 48 h) it was 1920 nM; in [4] (Homo sapiens, K562, 48 h), 322 nM; in [5] (Homo sapiens, HOP-62, 48 h) it was 1860 nM; in assay [6] (Homo sapiens, HCT-116, 48 h) it was 206 nM. The GI50 was 369 nM in assay [7] (Homo sapiens, 786-0, 48 h); 269 nM in assay [8] (Homo sapiens, MDA-MB-435, 48 h); 1190 nM in assay [9] (Homo sapiens); 197 nM in assay [10] (Homo sapiens, 48 h); 1750 nM in assay [11] (Homo sapiens, A498, 48 h); 1360 nM in assay [12] (Homo sapiens, CAKI-1, 48 h). The GI50 in [13] (Homo sapiens, KM12, 48 h) turned out to be 363 nM; in assay [14] (Homo sapiens, UACC-257, 48 h), 1880 nM; in assay [15] (Homo sapiens, A549, 48 h), 407 nM; in [16] (Homo sapiens, SK-OV-3, 48 h), 2080 nM; in assay [17] (Homo sapiens) it was 1180 nM; in [18] (Homo sapiens, COLO 205, 48 h) it was 216 nM. The same compound showed a 50% growth inhibitory concentration (GI50) in assay [19] (Homo sapiens, NCI-H23, 48 h) of 1650 nM.

Take `CCCC[Si](C)(C)COc1ccc(C(=O)N[C@@H](Cc2ccc(-c3ccccc3)cc2)C(=O)NC2CC(C)(C)NC(C)(C)C2)cc1` [GH1504, N^α-{4-[(butyldimethylsilyl)methoxy]-benzoyl}-N-(2,2,6,6-tetramethylpiperidin-4-yl)-(4-phenyl-L-phenylalaninamide)]: the GI50 amounted to 775 nM in assay [1] (Homo sapiens, MOLT-4, 48 h); 216 nM in [2] (Homo sapiens, OVCAR-8, 48 h); 1850 nM in [3] (Homo sapiens, Hs-578T, 48 h); 386 nM in [4] (Homo sapiens, K562, 48 h); 1360 nM in assay [5] (Homo sapiens, HOP-62, 48 h); 218 nM in assay [6] (Homo sapiens, HCT-116, 48 h). For the same compound, the concentration for 50% growth inhibition (GI50) is 780 nM in assay [7] (Homo sapiens, 786-0, 48 h); 292 nM in assay [8] (Homo sapiens, MDA-MB-435, 48 h); 1170 nM in assay [9] (Homo sapiens); 207 nM in assay [10] (Homo sapiens, 48 h); 1950 nM in assay [11] (Homo sapiens, A498, 48 h); 1580 nM in assay [12] (Homo sapiens, CAKI-1, 48 h). Besides, the GI50 was 376 nM in [13] (Homo sapiens, KM12, 48 h); 1780 nM in assay [14] (Homo sapiens, UACC-257, 48 h); 326 nM in assay [15] (Homo sapiens, A549, 48 h); 2120 nM in [16] (Homo sapiens, SK-OV-3, 48 h); 886 nM in [17] (Homo sapiens); 215 nM in assay [18] (Homo sapiens, COLO 205, 48 h). In [19] (Homo sapiens, NCI-H23, 48 h), this compound showed a GI50 of 1760 nM.

With `CCOP(=O)(OCC)C(NC(=O)[C@H](Cc1ccc(-c2ccccc2)cc1)NC(=O)c1ccc(OCCC[Si](C)(C)C)cc1)P(=O)(OCC)OCC` [GH1505, N^α-{4-[3-(trimethylsilyl)propoxy]-benzoyl}-N-[bis(dietoxyphosphoryl)methyl]-(4-phenyl-L-phenylalaninamide)], the GI50 in [1] (Leukemia, MOLT-4, 48 h drug incubation, read-out: GI50) was determined as 2860 nM; in assay [2] (Ovarian Cancer, OVCAR-8, 48 h drug incubation, read-out: GI50), 2960 nM; in assay [3] (Breast Cancer, HS 578T, 48 h drug incubation, read-out: GI50), 2610 nM; in [4] (Leukemia, K-562, 48 h drug incubation, read-out: GI50), 3460 nM; in assay [5] (Non-Small Cell Lung Cancer, HOP-62, 48 h drug incubation, read-out: GI50) it was 2000 nM; in [6] (Colon Cancer, HCT-116, 48 h drug incubation, read-out: GI50) it was 1930 nM. Besides, the 50% growth inhibitory concentration (GI50) in [7] (Renal Cancer, 786-0, 48 h drug incubation, read-out: GI50) worked out at 2760 nM; in [8] (Melanoma, MDA-MB-435, 48 h drug incubation, read-out: GI50) it was 1900 nM; in [9] (average over CNS Cancer panel), 2010 nM; in [10] (Melanoma, 48 h drug incubation, read-out: GI50), 1850 nM; in [11] (Renal Cancer, A-498, 48 h drug incubation, read-out: GI50) it was 3640 nM; in assay [12] (Renal Cancer, CAKI-1, 48 h drug incubation, read-out: GI50), 2900 nM. Moreover, the concentration for 50% growth inhibition (GI50) in assay [13] (Colon Cancer, KM12, 48 h drug incubation, read-out: GI50) came to 2610 nM; in assay [14] (Melanoma, UACC-257, 48 h drug incubation, read-out: GI50), 2420 nM; in assay [15] (Non-Small Cell Lung Cancer, A549/ATCC, 48 h drug incubation, read-out: GI50), 2840 nM; in [16] (Ovarian Cancer, SK-OV-3, 48 h drug incubation, read-out: GI50), 2590 nM; in assay [17] (average over Melanoma panel), 1920 nM; in [18] (Colon Cancer, COLO 205, 48 h drug incubation, read-out: GI50) it was 1840 nM. Moreover, the GI50 in [19] (Non-Small Cell Lung Cancer, NCI-H23, 48 h drug incubation, read-out: GI50) was found to be 3050 nM.
